{"source": "paper PMC2832019", "about": "“In Vitro Metabolic and Mitogenic Signaling of Insulin Glargine and Its Metabolites” (PLoS ONE, 2010)", "key": {"[1]": {"tested_on": "human IR-A", "test": "Competitive receptor binding (SPA), IR-A", "method": "(§1) The binding of the different insulins to the human IR-A and IR-B was analyzed in a competitive binding assay using the scintillation proximity assay as previously described, [30]. […] Briefly, cells were grown to confluence and gently detached, transferred to a centrifugation tube followed by centrifugation for 10 minutes at 600×g at 4°C. The pellet was resuspended in ice-cold 2.25 STM buffer (2.25 mol/L sucrose, 5 mmol/L Tris-HCl pH 7.4, 5 mmol/L MgCl2, 1x Complete Protease Inhibitor) and disrupted using a hand-held Dounce homogenizer followed by sonication. This homogenate was transferred to a centrifugation tube, overlaid with 0.8 STM buffer (0.8 mol/L sucrose, 5 mmol/L Tris-HCl pH 7.4, 5 mmol/L MgCl2, 1x Complete Protease Inhibitor) and centrifuged for 90 minutes at 100 000×g at 4°C. The emerging pellicle at the interface was collected, transferred to a new tube and washed two times with PBS by centrifugation for 10 minutes at 1500×g. The final pellet was resuspended in a small volume of dilution buffer (50 mmol/L Tris-HCl pH 7.4, 5 mmol/L MgCl2, 1x Complete Protease Inhibitor) and homogenized with a Dounce homogenizer. These plasma membrane preparations were stored until usage at –80°C.\n(§2) Binding experiments were conducted in 96-well microplates. Per well 2 µg of membranes were incubated with 0.25 mg wheat germ agglutinin polyvinyltoluene polyethylenimine SPA beads, 100 pmol/L A14[^125I]-insulin and various concentrations of unlabeled insulins in a binding buffer containing 0.05 mol/L Tris-HCl pH 7.8, 0.15 mol/L NaCl, 0.1% BSA, Complete Protease Inhibitor for 12 hours at room temperature (23°C). The radioactivity was measured at equilibrium in a microplate scintillation counter (Wallac Microbeta, Freiburg, Germany).\n(§3) For each experiment, IC50 or EC50 values were obtained using the 4-parameter logistic model according to Ratkowsky and Reedy (1986). The adjustment was obtained by non-linear regression using the Levenberg-Marquardt algorithm in SAS v9.1.3 software via Biost@t-Speed V2.0-LTS internal application. If necessary, lower and upper asymptotes were set to 0 and 100, respectively.\n(§4) The binding of a constant concentration of [^125I]insulin to plasma membranes from CHO cells overexpressing either IR-A or IR-B was measured in presence of increasing concentrations of unlabeled competing ligand after incubation at room temperature for 12 h. All data has been corrected for non-specific binding and are expressed as percentage of [^125I]insulin in absence of competing ligand. To analyze the insulin-stimulated activation and subsequent autophosphorylation of the insulin receptor CHO cells overexpressing the human IR-A (C) or IR-B (D) were stimulated for 15 min at 37°C with increasing concentrations of peptides, then the cells were fixed with 3.7% PFA and the amount of phosphotyrosines was analyzed via In-Cell Western. The data represent mean values ± SEM of at least 3 individual experiments measured in quadruplicate."}, "[2]": {"tested_on": "human IR-B", "test": "Competitive receptor binding (SPA), IR-B", "method": "as §1, §2, §3, §4"}, "[3]": {"tested_on": "human IR-A", "test": "IR-A autophosphorylation (In-Cell Western)", "type": "cell-based", "conditions": "CHO cells overexpressing IR-A, 15 min at 37°C, In-Cell Western; means ± SEM, at least three times; read-out: IR-A auto-phosphorylation EC50", "source_text": "(§5) CHO cells expressing either the IR-A or the IR-B isoform were used for IR autophosphorylation assays using In-Cell Western. For the analysis of IGF1R autophosphorylation the receptor was overexpressed in a mouse embryo fibroblast 3T3 Tet off cell line (BD Bioscience, Heidelberg, Germany) that was stably transfected with IGF1R tetracycline-regulatable expression plasmid resulting in the expression of ∼2.6×10^5 IGF1R per cell (as determined by FACS analysis, unpublished data). In order to determine the receptor tyrosine phosphorylation level, cells were seeded into 96-well plates and grown for 48 h. Cells were serum starved with serum-free medium αMEM (PAN Biotech GmbH, Aidenbach, Germany) for 3–4 h. […] After incubation the medium was discarded and the cells were fixed in 3.75% freshly prepared para-formaldehyde for 20 min. Cells were permeabilized with 0.1% Triton-X-100 in PBS for 20 min. Blocking was performed with Odyssey blocking buffer (LI-COR, Bad Homburg, Germany) overnight at 4°C. Anti-pTyr 4G10 (Millipore, Schwalbach, Germany) was incubated for 2 h at room temperature. After incubation of the primary antibody, cells were washed with PBS+0.1% Tween20. The secondary anti-mouse-IgG-800-CW antibody (Rockland, Gilbertsville, PA, USA) was incubated for 1 h. Results were normalized by the quantification of DNA with TO-PRO3 dye (Invitrogen, Karlsruhe, Germany). Data were obtained as relative units (RU) and are presented as fold over basal.\nas §3, §4\n(§6) Insulin receptor autophosphorylation was studied using CHO cells overexpressing either IR-A or IR-B. For detection an immunocytochemical microplate assay (In-Cell Western) based on two-colour fluorescence was applied."}, "[4]": {"tested_on": "human IR-B", "test": "IR-B autophosphorylation (In-Cell Western)", "type": "cell-based", "conditions": "CHO cells overexpressing IR-B, 15 min at 37°C, In-Cell Western; means ± SEM, at least three times; read-out: IR-B auto-phosphorylation EC50", "source_text": "as §5, §3, §4, §6"}, "[5]": {"target": "human IGF1R", "test": "Competitive binding, IGF1R", "conditions": "[^125I]IGF-1 as radioactive ligand; means ± SEM, at least three times; read-out: IGF1R affinity IC50", "method": "as §2, §3\nFigure 4 Activity of insulin analogs on the human IGF1R and mitogenic potential in Saos-2 cells. Analysis of binding to the human IGF1R using [^125I]IGF-1 as radioactive ligand (A) and analysis of the insulin-stimulated autophosphorylation of the human IGF1R overexpressed in MEF cells (B) were done as described in figure 2 and Materials and Methods. Data are given as means ± SEM. […] Confluent cells were starved for 4 h and then incubated for 19 h with increasing concentrations of IGF-1, insulin or analog in serum free medium. [^14C]thymidine was added for further 6 h and the radioactivity measured in a Wallac Micro Scintillation counter. Data are given as means ± SEM from octuplicate sample."}, "[6]": {"tested_on": "MCF-7 cells, HCT-116 (colorectal cancer) and PC-3 (prostate cancer) cells", "conditions": "ref [49]; cited from earlier work", "source_text": "A correlation between IGF1R autophosphorylation and cell proliferation has been recently assumed by Shukla et al., who observed an enhanced growth of the malignant cell line MCF7 after insulin glargine stimulation. The authors have observed 10% and 50% increases of cellular proliferation at 0.31 and about 15 nmol/L. […] Unfortunately, no dose-response curve of IGF1R autophosphorylation as well as no proliferation data from siRNA knockdown of IR have ..."}}}
{"substance": "IGF-2: IGF-2 obtained from R&D Systems and Cell Sciences", "values": [{"measurement": "higher affinity for IR-A than IR-B", "setting": "[1]; IR-A relative to IR-B", "result": 7.5, "unit": "fold"}, {"measurement": "IR-A binding relative to IGF-1 and human insulin", "setting": "[1]; IR-A, in words", "result": "higher affinity than IGF-1 but with lower affinity than human insulin"}, {"measurement": "IC50", "setting": "[1]; SPA, WGA PVT PEI beads, 2 µg membranes from CHO cells overexpressing IR-A, 100 pmol/L A14[^125I]-insulin, pH 7.8, 12 h, 23°C, means ± SEM, at least three times, read-out: IR-A affinity IC50", "result": "6.2 ± 0.34", "unit": "nM"}, {"measurement": "IR-B binding relative to IGF-1 and human insulin", "setting": "[2]; IR-B, in words", "result": "higher affinity than IGF-1 but with lower affinity than human insulin"}, {"measurement": "IC50", "setting": "[2]; SPA, WGA PVT PEI beads, 2 µg membranes from CHO cells overexpressing IR-B, 100 pmol/L A14[^125I]-insulin, pH 7.8, 12 h, 23°C, means ± SEM, at least three times, read-out: IR-B affinity IC50", "result": "46.6 ± 7.8", "unit": "nM"}, {"measurement": "EC50", "setting": "[3]", "result": "85.4 ± 5.5", "unit": "nM"}, {"measurement": "EC50", "setting": "[4]", "result": "384 ± 68.4", "unit": "nM"}, {"measurement": "IC50", "setting": "[5]", "result": "6.68 ± 2.24", "unit": "nM"}]}
{"substance": "insulin detemir", "values": [{"measurement": "mitogenic potency", "setting": "[6]", "result": "increased mitogenic potency"}]}
